9 molecules from patent US6156700A, “3-(1,2-Benzisothiazol- and isoxazol-5-yl)-2,4(1H,3H)-pyrimidinedione or thione and 3-(1,2-benzisothiazol- and isoxazol-5-yl)-4(3H)-pyrimidinone or thione herbicidal agents” (American Cyanmid Company, priority 1998, dated 2000) can be followed below.

SMILES strings stand for the structures.

What all share (conditions): 0.0630 kg/ha
Assay [1] has as its system Ragweed, Common, Ambrosia artemisifolia. The assay can be described thus: Postemergence herbicidal evaluation, AMBEL. Type of assay: in vivo, L. The procedure:
(§1) In the tests, seedling plants are grown in jiffy flats for about two weeks. The test compounds are dispersed in 50/50 acetone/water mixtures containing 0.5% TWEEN®20, a polyoxyethylene sorbitan monolaurate surfactant of Atlas Chemical Industries, in sufficient quantities to provide the equivalent of about 0.0157 kg to 0.500 kg per hectare of active compound when applied to the plants through a spray nozzle operating at 40 psi for a predetermined time. After spraying, the plants are placed on greenhouse benches and are cared for in accordance with conventional greenhouse procedures. From four to five weeks after treatment, the seedling plants are examined and rated according to the rating system set forth below. Where more than one test is involved for a given compound, the data are averaged.
(§2) Results of herbicide evaluation are expressed on a rating scale (0-9). The scale is based upon a visual observation of plant stand, vigor, malformation, size, chlorosis and overall plant appearance as compared with a control.

The subject of assay [2] is Wheat, Winter, cv Riband, Triticum aestivum. Nature of the assay: Postemergence herbicidal evaluation, TRZAWR. Type of assay: in vivo. How it is done: as §1, §2
In a further assay the test system is Galium, Galium aparine. The assay can be described thus: Postemergence herbicidal evaluation, GALAP. Type of assay: in vivo. How it is done: as §1, §2
The test system of assay [3] is Soybean, Williams, Glycine max. The assay can be described thus: Postemergence herbicidal evaluation, GLXMAW. Type of assay: in vivo, (L.) Merr. cv Williams. How it is done:
as §1, §2

In assay [4] the test system is Foxtail, Green, Setaria viridis. Nature of the assay: Postemergence herbicidal evaluation, SETVI. Type of assay: in vivo, (L.) Beau. How it is done: as §1, §2
Assay [5] has as its system Sicklepod, Cassia obtusifolia. Nature of the assay: Postemergence herbicidal evaluation, CASOB. Type of assay: in vivo, L. How it is done: as §1, §2
Assay [6] concerns Barnyardgrass, Echinochloa crus-galli. Nature of the assay: Postemergence herbicidal evaluation, ECHCG. Type of assay: in vivo, (L.) Beau. The procedure:
as §1, §2

Assay [7] deals with Rice, Tebonnet, Oryza sativa. Nature of the assay: Postemergence herbicidal evaluation, ORYSAT. Type of assay: in vivo, (L.) Tebonnet. How it is done:
as §1, §2

For assay [8], the system named is Lambsquarters, Common, Chenopodium album. Nature of the assay: Postemergence herbicidal evaluation, CHEAL. Type of assay: in vivo, L. The procedure: as §1, §2
Assay [9] relates to Morningglory, Ivyleaf, Ipomoea hederacea. Nature of the assay: Postemergence herbicidal evaluation, IPOHE. Type of assay: in vivo, (L.) Jacq. How it is done: as §1, §2
For assay [10], the system named is Velvetleaf, Abutilon theophrasti. The assay can be described thus: Postemergence herbicidal evaluation, ABUTH. Type of assay: in vivo, Medic. The procedure:
as §1, §2

A further assay has as its system Corn, Field, Zea mays. Nature of the assay: Postemergence herbicidal evaluation, ZEAMX. Type of assay: in vivo, L. How it is done: as §1, §2

In the case of `CC(=O)OCc1nsc2ccc(-n3c(=O)cc(C(F)(F)F)n(C)c3=O)cc12` [Compound 32, 3-[3-(Hydroxymethyl)-1,2-benzisothiazol-5-yl]-1-methyl-6-(trifluoromethyl)-2,4(1H,3H)-pyrimidinedione,acetate ester], the “herbicide rating (0-9)” value was 9.0 in [1]; 2.0 in [2]; 7.0 in the assay with Galium, Galium aparine; 5.5 in [3]; 5.0 in assay [4]; 4.0 in assay [5]. Further, the “herbicide rating (0-9)” value in assay [6] is given as 2.0; in [7], 1.0; in assay [8], 9.0; in [9], 9.0; in assay [10], 9.0; in the assay on Corn, Field, Zea mays, 5.5.
For `C=CCOC(=O)COc1ccc(C)cc1-c1nsc2ccc(-n3c(=O)cc(C(F)(F)F)n(C)c3=O)cc12` [Compound 69, Allyl {{2-{5-[3,6-dihydro-3-methyl-2,6-dioxo-4-(trifluoromethyl)-1(2H)-pyrimidinyl]-1,2-benzisothiazol-3-yl}-p-tolyl}oxy}acetate], the “herbicide rating (0-9)” value was determined as 9.0 in assay [1]; 8.0 in assay [2]; 9.0 with Galium, Galium aparine; 9.0 in assay [3]; 9.0 in assay [4]; 9.0 in [5]. The “herbicide rating (0-9)” value is given as 9.0 in [6]; 8.0 in assay [7]; 9.0 in assay [8]; 9.0 in [9]; 9.0 in assay [10]; 8.5 in the assay on Corn, Field, Zea mays.
Consider `Cc1ccc(OCC(=O)OCc2ccccn2)c(-c2nsc3ccc(-n4c(=O)cc(C(F)(F)F)n(C)c4=O)cc23)c1` [Compound 72, 2-Pyridylmethyl {{2-{5-[3,6-dihydro-3-methyl-2,6-dioxo-4-(trifluoromethyl)-1(2H)-pyrimidinyl]-1,2-benzisothiazol-3-yl}-p-tolyl}oxy}acetate], for which the “herbicide rating (0-9)” value in assay [1] came to 9.0; in [2], 7.5; in the assay with Galium, Galium aparine, 9.0; in assay [3], 9.0; in assay [4], 9.0; in assay [5] it was 7.0. Further, the “herbicide rating (0-9)” value in assay [6] stood at 9.0; in assay [7], 7.5; in assay [8], 9.0; in assay [9] it was 9.0; in [10], 9.0; in the assay with Corn, Field, Zea mays, 8.0.
On to `Cc1ccc(OCC(=O)OC2CCCC2)c(-c2nsc3ccc(-n4c(=O)cc(C(F)(F)F)n(C)c4=O)cc23)c1` [Compound 84, Cyclopentyl {{2-{5-[3,6-dihydro-3-methyl-2,6-dioxo-4-(trifluoromethyl)-1(2H)-pyrimidinyl)-1,2-benzisothiazol-3-yl}-p-tolyl}oxy}acetate], for which the “herbicide rating (0-9)” value stood at 9.0 in assay [1]; 8.0 in assay [2]; 9.0 in the assay on Galium, Galium aparine; 8.0 in [3]; 9.0 in assay [4]; 4.0 in assay [5]. For the same molecule, the “herbicide rating (0-9)” value was 9.0 in assay [6]; 8.0 in [7]; 9.0 in [8]; 9.0 in assay [9]; 9.0 in [10]; 7.5 with Corn, Field, Zea mays.
`CC#CCOC(=O)C(C)Oc1ccc(C)cc1-c1nsc2ccc(-n3c(=O)cc(C(F)(F)F)n(C)c3=O)cc12` (stereo not drawn) [Compound 80, 2-Butynyl 2-{{2-{5-[3,6-dihydro-3-methyl-2,6-dioxo-4-(trifluoromethyl)-1(2H)-pyrimidinyl]-1,2-benzisothiazol-3-yl}-p-tolyl}oxy}propionate]: the “herbicide rating (0-9)” value in [1] came to 9.0; in assay [2], 8.0; in the assay with Galium, Galium aparine, 9.0; in [3] it was 7.5; in [4] it was 9.0; in assay [5], 7.0. Besides, the “herbicide rating (0-9)” value in [6] is 9.0; in assay [7] it was 7.5; in [8], 9.0; in [9], 9.0; in assay [10] it was 9.0; in the assay on Corn, Field, Zea mays, 7.5.
Regarding `C=CCOC(=O)C(C)Oc1ccc(C)cc1-c1nsc2ccc(-n3c(=O)cc(C(F)(F)F)n(C)c3=O)cc12` (stereo not drawn) [Compound 78, Allyl 2-{{2-{5-[3,6-dihydro-3-methyl-2,6-dioxo-4-(trifluoromethyl)-1(2H)-pyrimidinyl]-1,2-benzisothiazol-3-yl}-p-tolyl}oxy}propionate], the “herbicide rating (0-9)” value in assay [1] was 9.0; in assay [2], 9.0; in the assay on Galium, Galium aparine, 7.0; in assay [3], 6.5; in [4] it was 9.0; in assay [5], 3.0. Besides, the “herbicide rating (0-9)” value in assay [6] came to 9.0; in assay [7], 7.0; in [8], 9.0; in assay [9], 9.0; in [10] it was 9.0; in the assay on Corn, Field, Zea mays, 7.5.
As for `C#CCOC(=O)C(C)Oc1ccc(C)cc1-c1nsc2ccc(-n3c(=O)cc(C(F)(F)F)n(C)c3=O)cc12` (stereo not drawn) [Compound 77, 2-Propynyl 2-{{2-{5-[3,6-dihydro-3-methyl-2,6-dioxo-4-(trifluoromethyl)-1(2H)-pyrimidinyl]-1,2-benzisothiazol-3-yl}-p-tolyl}oxy}propionate], the “herbicide rating (0-9)” value in assay [1] is listed as 9.0; in [2], 9.0; in the assay with Galium, Galium aparine, 9.0; in assay [3] it was 7.0; in [4] it was 9.0; in [5], 4.0. Moreover, the “herbicide rating (0-9)” value in [6] stood at 9.0; in assay [7], 9.0; in assay [8], 9.0; in [9], 9.0; in assay [10], 9.0; with Corn, Field, Zea mays, 8.0.
Take `COC(=O)C(C)Oc1ccc(C)cc1-c1nsc2ccc(-n3c(=S)cc(C(F)(F)F)n(C)c3=O)cc12` (stereo not drawn) [Compound 33, Methyl 2-{{2-{5-[3,6-dihydro-3-methyl-2-oxo-6-thioxo-4-(trifluoromethyl)-1(2H)-pyrimidinyl]-1,2-benzisothiazol-3-yl}-p-tolyl}oxy}propionate]: the “herbicide rating (0-9)” value in [1] amounted to 9.0; in assay [2], 8.5; in the assay with Galium, Galium aparine, 9.0; in assay [3] it was 6.0; in [4] it was 9.0; in assay [5], 8.0. For the same molecule, the “herbicide rating (0-9)” value amounted to 9.0 in assay [6]; 7.5 in [7]; 9.0 in assay [8]; 9.0 in assay [9]; 9.0 in assay [10]; 8.5 with Corn, Field, Zea mays.
In the case of `Cn1c(C(F)(F)F)cc(=O)n(-c2ccc3snc(Cl)c3c2)c1=O` [Compound 37, 3-(3-chloro-1,2-benzisothiazol-5-yl)-1-methyl-6-(trifluoromethyl)-2,4(1H,3H)-pyrimidinedione], the “herbicide rating (0-9)” value is 0.0 in assay [1]; 0.5 in assay [2]; 0.0 with Galium, Galium aparine; 1.5 in assay [3]; 0.0 in assay [4]; 0.0 in assay [5]. Further, the “herbicide rating (0-9)” value in assay [6] is 0.0; in assay [7], 0.5; in assay [8], 0.0; in assay [9] it was 1.0; in [10] it was 1.0; in the assay with Corn, Field, Zea mays, 2.0.
